In patent publication US20250171459A1, “2-METHYL-4',5'-DIHYDROSPIRO[PIPERIDINE-4,7'-THIENO[2,3-C]PYRAN] DERIVATIVES AS INHIBITORS OF APOL1 AND METHODS OF USING SAME” (Vertex Pharmaceuticals Incorporated, priority 2022, published 2025):

Target: T1, APOL1 (Homo sapiens, UniProt O14791)
T1 sequence (O14791 1-398 S342G/I384M): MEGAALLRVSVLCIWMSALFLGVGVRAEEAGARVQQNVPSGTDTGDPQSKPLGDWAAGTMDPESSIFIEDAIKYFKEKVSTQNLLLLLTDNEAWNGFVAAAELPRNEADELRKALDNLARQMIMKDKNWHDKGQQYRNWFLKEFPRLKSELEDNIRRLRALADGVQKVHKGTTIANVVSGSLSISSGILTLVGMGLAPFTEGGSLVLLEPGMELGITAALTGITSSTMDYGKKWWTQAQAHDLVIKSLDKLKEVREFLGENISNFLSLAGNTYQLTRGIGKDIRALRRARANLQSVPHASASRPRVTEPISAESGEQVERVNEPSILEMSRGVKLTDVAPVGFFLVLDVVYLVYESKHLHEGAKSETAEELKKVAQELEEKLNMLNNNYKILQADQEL
Assay: MultiTox-Fluor Multiplex Cytotoxicity Assay in tet-inducible APOL1 T-REx-HEK293 cells (cell rescue, ratio of dead to live cells)
Assay type: cell-based
Settings: tet-inducible transgenic APOL1 T-REx-HEK293 cell lines, 50 ng/mL tet, 24 hours; read-out: IP50 (i.e., IC50 for cell proliferation)
In short: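 T-REx-HEK293 cells with tet-inducible APOL1 were treated with compound (10 μM top, 10-point 3-fold dilution, duplicate) plus 50 ng/mL tetracycline for 24 h at 37° C, in DMEM with 2% tet-free FBS. MultiTox-Fluor protease signals gave a dead/live ratio, normalized to no tet (100% viability) and tet alone (0%).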

Structure (SMILES): CCc1cc2c(s1)CCOC21CCN(Cc2cn(C3CC(O)C3(C)C)nn2)CC1 (centres unmarked) [Compound 1094]
- IC50: 500 to 1000 nM

Structure (SMILES): CCc1cc2c(s1)CCO[C@@]21CCN(Cc2cn([C@H]3CCN(S(C)(=O)=O)C3)nn2)[C@@H](C)C1 [Compound 27]
- IC50: < 100 nM

Structure (SMILES): CCc1cc2c(s1)CCO[C@@]21CCN(Cc2cn(C[C@H](C)O)nn2)[C@@H](C)C1 [Compound 141]
- IC50: 100 to 500 nM

Structure (SMILES): CCc1cc2c(s1)CCOC21CCN(Cc2cn(CC(O)C3CCOCC3)nn2)C(C)C1 (centres unmarked) [Compound 86]
- IC50: < 100 nM

Structure (SMILES): CCc1cc2c(s1)CCO[C@@]21CCN(C[C@H]2C[C@@H](N)C2)[C@@H](C)C1 [Compound 299, 3-[[(2′S,4R)-2-ethyl-2′-methyl-spiro[6,7-dihydrothieno[3,2-c]pyran-4,4′-piperidine]-1′-yl]methyl]cyclobutanamine]
- IC50: 100 to 500 nM

Structure (SMILES): CCc1cc2c(s1)CCO[C@@]21CCN(Cc2cn(C3CS(=O)(=O)C3)nn2)[C@@H](C)C1 [Compound 29]
- IC50: < 100 nM

Structure (SMILES): CCc1cc2c(s1)CCOC21CCN(Cc2cn(CC(O)c3cccnc3)nn2)CC1 (centres unmarked) [Compound 1103]
- IC50: 500 to 1000 nM

Structure (SMILES): CCc1cc2c(s1)CCO[C@@]21CCN(C[C@H]2C[C@@H](NS(=O)(=O)CC)C2)[C@@H](C)C1 [Compound 394]
- IC50: < 100 nM

Structure (SMILES): C[C@H]1C[C@@]2(CCN1Cc1cn(CCS(C)(=O)=O)nn1)OCC(=O)c1cc(Cl)sc12 [Compound 822, (2S,4R)-2′-chloro-2-methyl-1-[[1-(2-methylsulfonylethyl)triazol-4-yl]methyl]spiro[piperidine-4,7′-thieno[2,3-c]pyran]-4′-one]
- IC50: 100 to 500 nM

Structure (SMILES): CCc1cc2c(s1)CCO[C@@]21CCN(C[C@H]2C[C@@H](NC(=O)CC#N)C2)[C@@H](C)C1 [Compound 334]
- IC50: 100 to 500 nM

Structure (SMILES): CCc1cc2c(s1)CCOC21CCN(Cc2ccc(C(=O)NCC3(C)CCOC3)nc2)CC1 (centres unmarked) [Compound 1062]
- IC50: 100 to 500 nM

Structure (SMILES): CCc1cc2c(s1)CCO[C@@]21CCN(Cc2cn(C[C@@H](C)O)nn2)[C@@H](C)C1 [Compound 140]
- IC50: < 100 nM

Structure (SMILES): CCc1cc2c(s1)CCO[C@@]21CCN(C[C@H]2C[C@@H](NC(=O)c3ccn(CC(C)C)n3)C2)[C@@H](C)C1 [Compound 317]
- IC50: 100 to 500 nM

Structure (SMILES): CCc1cc2c(s1)CCO[C@@]21CCN(C[C@H]2C[C@@H](NC(=O)C3CCc4ccccc4O3)C2)[C@H](C)C1 (stereo in doubt) [Compound 332]
- IC50: 100 to 500 nM

Structure (SMILES): C[C@H]1C[C@@]2(CCN1Cc1cnn(CCS(C)(=O)=O)c1)OCC(O)c1c2sc(Cl)c1Cl (stereo partly drawn) [Compound 861, (2S,4R)-2′,3′-dichloro-2-methyl-1-((1-(2-(methylsulfonyl)ethyl)-1H-pyrazol-4-yl)methyl)-4′l3-spiro[piperidine-4,7′-thieno[3,2-d]pyran]-4′(5′H)-ol]
- IC50: 100 to 500 nM

Structure (SMILES): C[C@H]1C[C@@]2(CCN1Cc1cnn(CCS(C)(=O)=O)c1)OCCc1c2sc(C(F)(F)F)c1CO [Compound 872, [(2′S,7R)-2′-methyl-1′-[[1-(2-methylsulfonylethyl)pyrazol-4-yl]methyl]-2-(trifluoromethyl)spiro[4,5-dihydrothieno[2,3-c]pyran-7,4′-piperidine]-3-yl]methanol]
- IC50: < 100 nM

Structure (SMILES): CCc1cc2c(s1)CCO[C@@]21CCN(Cc2cn(Cc3cn(C)nc3C)nn2)[C@@H](C)C1 [Compound 54]
- IC50: < 100 nM

Structure (SMILES): CCc1cc2c(s1)CCO[C@@]21CCN(Cc2cnc(N[C@@H]3C(=O)NC[C@H]3O)nc2)[C@@H](C)C1 [Compound 220]
- IC50: < 100 nM

Structure (SMILES): C[C@H]1C[C@@]2(CCN1Cc1cnn(C[C@H](O)C(C)(C)O)c1)OCCc1c2sc(C(F)(F)F)c1CO [Compound 887, (2S)-1-[4-[[(2′S, 7R)-3-(hydroxymethyl)-2′-methyl-2-(trifluoromethyl)spiro[4,5-dihydrothieno[2,3-c]pyran-7,4′-piperidine]-1′-yl]methyl]pyrazol-1-yl]-3-methyl-butane-2,3-diol]
- IC50: < 100 nM

Structure (SMILES): CCc1cc2c(s1)CCO[C@@]21CCN(Cc2ccc(N[C@H]3COC[C@@H]3O)nc2)[C@@H](C)C1 [Compound 212]
- IC50: < 100 nM

Structure (SMILES): C[C@H]1C[C@@]2(CCN1Cc1cn(CCS(C)(=O)=O)nn1)OCCc1c2sc(C(F)(F)F)c1C(=O)NCC1CC1 [Compound 1008]
- IC50: 500 to 1000 nM

Structure (SMILES): CCc1cc2c(s1)CCO[C@@]21CCN([C@H]2C[C@@H](NC(=O)OC(C)(C)C)C2)[C@@H](C)C1 [Compound 298]
- IC50: 500 to 1000 nM

Structure (SMILES): C[C@H]1C[C@@]2(CCN1Cc1ncc(NC(C)(C)CO)cn1)OCCc1cc(CC(F)F)sc12 [Compound 560]
- IC50: < 100 nM

Structure (SMILES): CCc1cc2c(s1)CCO[C@@]21CCN(Cc2cn(CC(C)n3cncn3)nn2)[C@@H](C)C1 (some centres unmarked) [Compound 58]
- IC50: 100 to 500 nM

Structure (SMILES): C[C@H]1C[C@@]2(CCN1CC1(C)COC1)OCCc1cc(CC(F)F)sc12 [Compound 585]
- IC50: 100 to 500 nM

Structure (SMILES): CCc1cc2c(s1)CCO[C@@]21CCN(C[C@H]2C[C@@H](NC(=O)[C@@H]3CCCO3)C2)[C@@H](C)C1 [Compound 369]
- IC50: 100 to 500 nM

Structure (SMILES): C[C@H]1C[C@@]2(CCN1Cc1cn(CCO)nn1)OCCc1cc(Cl)sc12 [Compound 627]
- IC50: 100 to 500 nM

Structure (SMILES): C[C@H]1C[C@@]2(CCN1Cc1cnn(CCO)c1)OC[C@@H](O)c1cc(C(F)(F)F)sc12 [Compound 885]
- IC50: < 100 nM

Structure (SMILES): CCc1cc2c(s1)CCOC21CCN(Cc2cn(CCS(=O)(=O)CC)nn2)CC1 [Compound 1089]
- IC50: 500 to 1000 nM

Structure (SMILES): CCc1cc2c(s1)CCO[C@@]21CCN(C[C@H]2C[C@@H](NS(C)(=O)=O)C2)[C@@H](C)C1 [Compound 410]
- IC50: < 100 nM

Structure (SMILES): C[C@H]1C[C@@]2(CCN1Cc1cnn(C[C@H](O)C(=O)NC3CC3)c1)OC[C@@H](O)c1cc(C(F)(F)F)sc12 [Compound 999]
- IC50: < 100 nM

Structure (SMILES): C[C@H]1C[C@@]2(CCN1Cc1cnn(CCS(C)(=O)=O)c1)OCCc1cc(C3CC3)sc12 [Compound 1034, (2′S, 7R)-2-cyclopropyl-2′-methyl-1′-[[1-(2-methylsulfonylethyl)pyrazol-4-yl]methyl]spiro[4,5-dihydrothieno[2,3-c]pyran-7,4′-piperidine]]
- IC50: < 100 nM

Structure (SMILES): CCc1cc2c(s1)CCO[C@@]21CCN(C[C@H]2C[C@@H](NC(=O)OCCOC)C2)[C@@H](C)C1 [Compound 374]
- IC50: 100 to 500 nM

Structure (SMILES): CCc1cc2c(s1)CCOC21CCN(Cc2cn(CCC(=O)NCCO)nn2)CC1 [Compound 1111]
- IC50: 500 to 1000 nM

Structure (SMILES): C[C@H]1C[C@@]2(CCN1Cc1cnn(Cc3ccc(F)cc3)c1)OCCc1cc(Cl)sc12 [Compound 707]
- IC50: < 100 nM

Structure (SMILES): C[C@H]1C[C@@]2(CCN1Cc1cnn(CC3CC4(CCOCC4)C(=O)O3)c1)OCCc1c2sc(C(F)(F)F)c1CO (some centres unmarked) [Compound 984]
- IC50: < 100 nM

Structure (SMILES): Cc1cc2c(s1)[C@]1(CCN(Cc3cnc(NC(C)(C)CO)nc3)[C@@H](C)C1)OCC2 [Compound 1025]
- IC50: < 100 nM

Structure (SMILES): COCCN1CC[C@]2(C[C@@H]1C)OCCc1cc(CC(F)F)sc12 [Compound 614]
- IC50: 100 to 500 nM

Structure (SMILES): CCc1cc2c(s1)CCO[C@@]21CCN(CC2CN(C(=O)Cc3ccncn3)C2)[C@@H](C)C1 [Compound 441]
- IC50: < 100 nM

Structure (SMILES): CCc1cc2c(s1)CCO[C@@]21CCN(Cc2cn(CCNC(=O)c3cnc(C)cn3)nn2)[C@@H](C)C1 [Compound 50]
- IC50: < 100 nM

Structure (SMILES): CCc1cc2c(s1)CCO[C@@]21CCN(Cc2cn(Cc3cnc(C)cn3)nn2)[C@@H](C)C1 [Compound 32]
- IC50: < 100 nM

Structure (SMILES): CCc1cc2c(s1)CCOC21CCN(Cc2cn(CC(=O)NCCO)nn2)CC1 [Compound 1095]
- IC50: 500 to 1000 nM

Structure (SMILES): C[C@H]1C[C@@]2(CCN1Cc1cc[nH]n1)OCCc1cc(CC(F)F)sc12 [Compound 562]
- IC50: < 100 nM

Structure (SMILES): C[C@H]1C[C@@]2(CCN1Cc1cnn(Cc3nnnn3C)c1)OCCc1c2sc(C(F)(F)F)c1CO [Compound 914]
- IC50: < 100 nM

Structure (SMILES): CCc1cc2c(s1)CCO[C@@]21CCN(Cc2cn(CC3CCCS3(=O)=O)nn2)[C@@H](C)C1 (some centres unmarked) [Compound 161]
- IC50: < 100 nM

Structure (SMILES): CCc1cc2c(s1)CCO[C@@]21CCN(C[C@H]2C[C@@H](NS(=O)(=O)c3ccc(C(N)=O)cc3)C2)[C@@H](C)C1 [Compound 413]
- IC50: < 100 nM

Structure (SMILES): CC(C)OC[C@@H](O)Cn1cc(CN2CC[C@]3(C[C@@H]2C)OCCc2c3sc(C(F)(F)F)c2CO)cn1 [Compound 956]
- IC50: < 100 nM

Structure (SMILES): C[C@H]1C[C@@]2(CCN1CCC1CCOCC1)OCCc1cc(Cl)sc12 [Compound 673]
- IC50: 500 to 1000 nM

Structure (SMILES): C[C@H]1C[C@@]2(CCN1Cc1ccc(OCCO)cc1)OCCc1c2sc(Cl)c1CO [Compound 715]
- IC50: < 100 nM

Structure (SMILES): CCc1cc2c(s1)CCO[C@@]21CCN(Cc2ccc(N[C@H]3CC[C@H](O)C3)nc2)[C@@H](C)C1 [Compound 205]
- IC50: < 100 nM

Structure (SMILES): Cc1cc2c(s1)CCO[C@]21CCN(Cc2cnn(CCS(C)(=O)=O)c2)[C@@H](C)C1 [Compound 516, (2′S,4S)-2,2′-dimethyl-1′-[[1-(2-methylsulfonylethyl)pyrazol-4-yl]methyl]spiro[6,7-dihydrothieno[3,2-c]pyran-4,4′-piperidine]]
- IC50: < 100 nM

Structure (SMILES): CCc1cc2c(s1)CCOC21CCN(Cc2cn(CC(CO)C(C)C)nn2)C(C)C1 (centres unmarked) [Compound 107]
- IC50: < 100 nM

Structure (SMILES): Cc1cncc(N2CCC(CN3CC[C@]4(C[C@@H]3C)OCCc3cc(Cl)sc34)CC2)n1 [Compound 677]
- IC50: 500 to 1000 nM

Structure (SMILES): C[C@H]1C[C@@]2(CCN1Cc1cnn(CC(O)CC3(O)COC3)c1)OCCc1c2sc(C(F)(F)F)c1CO (some centres unmarked) [Compound 945]
- IC50: < 100 nM

Structure (SMILES): C[C@H]1C[C@@]2(CCN1Cc1ccc(S(C)(=O)=O)c(F)c1)OCCc1cc(Cl)sc12 [Compound 669]
- IC50: 100 to 500 nM

Structure (SMILES): CCc1cc2c(s1)CCO[C@@]21CCN(Cc2cn(CC(=O)N3CCOCC3)nn2)[C@@H](C)C1 [Compound 90]
- IC50: 100 to 500 nM
